± gives the expanded uncertainty stated by the source.
Conditions: Plate method

| surface tension liquid-gas (293.15 K) [mN/m] | surface tension liquid-gas (298.15 K) [mN/m] | surface tension liquid-gas (303.15 K) [mN/m] | surface tension liquid-gas (308.15 K) [mN/m] | surface tension liquid-gas (313.15 K) [mN/m] | surface tension liquid-gas (318.15 K) [mN/m] | surface tension liquid-gas (323.15 K) [mN/m] | SMILES |
| --- | --- | --- | --- | --- | --- | --- | --- |
| 44.56 ± 0.46 | 44.32 ± 0.46 | 44.11 ± 0.46 | 43.88 ± 0.46 | 43.63 ± 0.46 | 43.42 ± 0.46 | 43.18 ± 0.45 | CCCCn1cc[n+](C)c1.F[P-](F)(F)(F)(F)F [1-butyl-3-methylimidazolium hexafluorophosphate] |
| 44.75 ± 0.46 | 44.52 ± 0.46 | 44.16 ± 0.46 | 43.95 ± 0.46 | 43.63 ± 0.46 | 43.34 ± 0.46 | 42.98 ± 0.45 | CCCCn1cc[n+](C)c1.F[B-](F)(F)F [1-butyl-3-methylimidazolium tetrafluoroborate] |

| SMILES | surface tension liquid-gas (293.15 K) [mN/m] | surface tension liquid-gas (298.15 K) [mN/m] | surface tension liquid-gas (303.15 K) [mN/m] | surface tension liquid-gas (308.15 K) [mN/m] | surface tension liquid-gas (313.15 K) [mN/m] | surface tension liquid-gas (318.15 K) [mN/m] | surface tension liquid-gas (323.15 K) [mN/m] |
| --- | --- | --- | --- | --- | --- | --- | --- |
| CCCC[n+]1ccn(C)c1.O=S(=O)([N-]S(=O)(=O)C(F)(F)F)C(F)(F)F | 33.29 ± 0.43 | 33.07 ± 0.43 | 32.88 ± 0.43 | 32.67 ± 0.43 | 32.49 ± 0.43 | 32.29 ± 0.43 | 32.11 ± 0.43 |
